The values below come from patent publication US20060040883A1, “Methods for treating cancer using anti-Wnt2 monoclonal antibodies and siRNA” (The Regents of the University of California, priority 2004, published 2006).

Series [1] relates to MS1 mesothelioma cells. Nature of the series: Proliferation assay (tetrazolium conversion) in MS1 cells. In kind it is cell-based, human. The following applies: three days. The protocol: Alimta® (MTA) was supplied by Eli Lilly (Indianapolis, Ind.). Alimta® was diluted in sterile physiological solution at a concentration of 10 mg/ml. The stock was divided into aliquots, stored at −80° C., and diluted in culture medium before each experiment. Wnt2 antibody was stored at 4° C. and used as previously described. Cell proliferation was determined by measuring metabolic activity of tetrazolium conversion (Cell Titer 96 assay, Promega, Madison, Wis.). Briefly, 5,000 cells were plated per well in a 96-well plate and culture medium containing increasing concentrations of both drugs was added. Plates were incubated at 37° C. for 72 hours in a CO2 incubator. Then a solubilization/stop solution was added and the absorbance was recorded with a […] at a wavelength of 570 nm. Each experiment was repeated at least 3 times in triplicate.
The effects of the anti-Wnt2 monoclonal antibody on cell proliferation were assessed and compared with the effects of Alimta®. Alimta® (LY231514, MTA, pemetrexed) is a novel multifunctional antifolate antimetabolite (Hanauske Lung Cancer 45 Suppl 1:S121-4 (2004)). […] Alimta® is now considered a standard in the treatment of surgically non-amenable mesothelioma. […] Three days later the cell proliferation was assessed by measuring the metabolic activity of cellular enzyme (here the tetrazolium conversion).

For series [2], the system named is JNK. The series is described as follows: JNK activity. The format is cell-based. The settings on record: inhibition of Dvl by blocking CK-2 activity. The source says: Through frizzled receptor and dishevelled protein, Wnt signal activates two distinct pathways: the canonical pathway (i.e., β catenin pathway) and the JNK pathway. Dishevelled protein has three highly conserved domains, DIX, PDZ, and DEP. Among them, the DIX and PDZ domains are necessary for the canonical signaling pathway while the DEP domain is important for the activation of JNK pathway. […] Most likely, the activation of JNK after anti-Wnt antibody treatment is through Dvl.

Series [3] concerns A549, LOX and FEMX. Nature of the series: Specificity control with blocking peptide (apoptosis by flow cytometry). In kind it is cell-based, human. The following applies: 300 μg/ml for 72 hrs, alone. The source says: Cells were harvested by trypsinization and processed for determination of cell surface annexin-V and propodium iodide (PI) contents, according to the manufacture's protocol (Annexin V FITC Apoptosis Detection Kit (Oncogene, Cambridge, Mass.); Apotarget (BioSource International)). With the use of Annexin-V-PI double staining regime, three populations of cells are distinguishable in two color flow cytometry: (a) non-apoptotic cells: annexin-V and PI negative; (b) early apoptotic cells with exposed phosphatidylserine but intact cell membranes bound to Annexin V-FITC but excluded propidium iodide; and (c) cells in necrotic or late apoptotic stages were labeled with both Annexin V-FITC and propidium iodide. Then stained cells were immediately analyzed by flow cytometry (FACScan; Decton Dickinson, Franklin Lake, N.J.). TUNEL staining of tumor tissue samples harvested from in vivo experiment was performed using ApopTag Peroxidase In Situ Oligo Ligation Apoptosis Detection Kit (Chemicon International, Temecula, Calif.) according to the manufacturer's protocol.
As a specificity control, induction of apoptosis was examined by using monoclonal Wnt2 antibody blocked by overnight pre-incubation with blocking peptide (30-fold over the antibody) in A549, LOX and FEMX. […] Same dose of blocking peptide (300 μg/ml for 72 hrs) alone had no effect on cell viability.
A general note: A flow cytometer gives signals particle by particle.

The subject of series [4] is hepatoma cell lines HepG2 and Hep3B. Nature of the series: Cytotoxic effects in hepatoma cell lines. The format is cell-based. The settings on record: data not shown.

In the case of `Nc1nc2[nH]cc(CCc3ccc(C(=O)N[C@@H](CCC(=O)O)C(=O)O)cc3)c2c(=O)[nH]1` [Alimta®, pemetrexed], the “decrease in cell proliferation” value in series [1] (1 μg/ml) is given as “about 41.9%”; in series [1] (10 μg/ml) it was “about 42.9%”.

With `O=c1cc(-c2ccc(O)cc2)oc2cc(O)cc(O)c12` [Apigenin, reference compound], the JNK activity result in series [2] is on record as “increased JNK activity”.

As for “blocking peptide: peptide pre-incubated with the anti-Wnt2 antibody (30-fold over the antibody) to block it (SSQRQLCHRHPDVMR; UniProt P09544 49-63, looked up, fragment) [reference compound]”, the cell viability result in series [3] is reported as “no effect”.

B1: anti-Wnt2 monoclonal antibody: mouse monoclonal IgG1 raised against residues 49-63 of human Wnt2; 17F7.G7 was used in the experiments described (protein)
chain: SWWYMRATGGSSRVMCDNVPGLVSSQRQLCHRHPDVMRAISQGVAEWTAECQHQFRQHRWNCNTLDRDHSLFGRVLLRSSRESAFVYAISSAGVVFAITRACSQGEVKSCSCDPKKMGSAKDSKGIFDWGGCSDNIDYGIKFARAFVDAKERKGKDARALMNLHNNRAGRKAVKRFLKQECKCHGVSGSCTLRTCWLAMADFRKTGDYLWRKYNGAIQVVMNQDGTGFTVANERFKKPTKNDLVYFENSPDYCIRDREAGSLGTAGRVCNLTSRGMDSCEVMCCGRGYDTSHVTRMTKCGCKFHWCCAVRCQDCLEALDVHTCKAPKNADWTTAT
With B1, the cytotoxic effects entry in series [4] is given as “cytotoxic effects”.
